Assay [1] deals with malaria parasite. The settings on record: cited from earlier work.
The test system of assay [2] is P. falciparum parasites (DV morphology). Put plainly: Digestive vacuole phenotype, light microscopy of Giemsa-stained parasites. It counts as cell-based, Plasmodium falciparum. The settings on record: 3.3 µM compound.

Consider two molecules from publication PMC3574796 (Future medicinal chemistry, 2012).

For the molecule `Nc1cc(Cl)ccc1Cl` [2,5-dichloroaniline], in assay [1], the Antimalarial activity result is “without antimalarial activity”.
As to `CC(C)C[C@H](NC(=O)[C@H]1O[C@@H]1C(=O)O)C(=O)NCCCCN=C(N)N` [Compound E64, E64], in assay [2], the DV phenotype entry was “swollen and dark staining DV phenotype”.
